What was measured:
Test in all cases: relative viability (nuclei count vs DMSO), 5 days (fraction); higher = more cells survive
[1] = compound: CNC(=O)c1ccccc1Sc1ccc2c(/C=C/c3ccccn3)n[nH]c2c1 [Axitinib] + NC(=O)Nc1cc(-c2cccc(F)c2)sc1C(=O)N[C@H]1CCCNC1 [AZD7762] (partner 0.2 µM)
Outline: (§1)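 Relative viability equals treated-well nuclei counts divided by vehicle-well nuclei counts. Counts came from 4× images of lung cancer cell lines grown in 1536-well plates for 5 days after pin-tool dosing on the day after seeding. Dosing used one drug alone or a fixed anchor-drug dose plus five library-drug doses (not always all listed) in √10 steps, and values are medians of duplicate plates.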

[2] = compound: CC1=CC=C(C=C1)C(=O)CN2C3=C(CCCC3)SC2=N [Pifithrin_alpha] + NC(=O)Nc1cc(-c2cccc(F)c2)sc1C(=O)N[C@H]1CCCNC1 [AZD7762] (partner 0.2 µM)
Outline: as §1

[3] = compound: Nc1nc(Nc2ccc3c(c2)CC[C@@H](N2CCCC2)CC3)nn1-c1cc2c(nn1)-c1ccccc1CCC2 [Bemcentinib] + C[C@@H](Oc1cc(-c2cnn(C3CCNCC3)c2)cnc1N)c1c(Cl)ccc(F)c1Cl [Crizotinib] (partner 1 µM)
Outline: as §1

[4] = compound: CNC(=O)c1ccccc1Sc1ccc2c(/C=C/c3ccccn3)n[nH]c2c1 [Axitinib] + CC(C)C[C@H](NC(=O)[C@H](Cc1ccccc1)NC(=O)c1cnccn1)B(O)O [Bortezomib] (partner 0.002 µM)
Outline: as §1

Cell Line: NCI-H650
- relative viability ([1]; first compound 0.005 µM): 1.08
- relative viability ([1]; first compound 0.01581 µM): 0.978
- relative viability ([1]; first compound 0.05 µM): 1.08
- relative viability ([1]; first compound 0.1581 µM): 1.11
- relative viability ([1]; first compound 0.5 µM): 0.862
- relative viability ([2]; first compound 3.162 µM): 1.08
- relative viability ([2]; first compound 10 µM): 0.932
- relative viability ([2]; first compound 31.62 µM): 0.718
- relative viability ([2]; first compound 100 µM): 0.905
- relative viability ([3]; first compound 0.04 µM): 0.721
- relative viability ([3]; first compound 0.1265 µM): 0.785
- relative viability ([3]; first compound 0.4 µM): 0.679
- relative viability ([3]; first compound 1.265 µM): 0.703
- relative viability ([3]; first compound 4 µM): 0.618
- relative viability ([4]; first compound 0.005 µM): 0.739
- relative viability ([4]; first compound 0.01581 µM): 0.944
- relative viability ([4]; first compound 0.05 µM): 0.683
- relative viability ([4]; first compound 0.1581 µM): 0.7
- relative viability ([4]; first compound 0.5 µM): 0.816

From the supplement of paper PMC10307832
